Measurements: US8901118B2, “Compounds and methods for kinase modulation, and indications therefor” (Plexxikon Inc., priority 2010, dated 2014)

How the values were obtained:
BCR-FMS BaF3 cells = experiment: Splenomegaly mouse model, BCR-FMS BaF3 cells; type: in vivo; details: dosed once per day at 10 mg per kg
Procedure: BaF3 cells are engineered with any of BCR-FMS, BCR-TRK1 or BCR-TRK2 to assess in vivo inhibitory effects of Fms, TrkA or TrkB inhibition, respectively. BaF3 cells are maintained in growth media (RPMI containing 10% FBS, 1% PenStrep, 1% NEAA, and 1% L-Glutamine, supplemented with 5% murine IL-3 and 1 mg/mL G418). Four days prior to start, 2×10^6 cells are inoculated into a T150 vented flask using the growth media and incubated at 37° C. in 5% CO2 for three days. One day prior to start, cells are collected by centrifugation and are suspended in growth media without IL-3. On the day of cell implant, the cells are collected by centrifugation, rinsed 3×20 mL with RPMI, then are suspended in 5.4 mL of media and counted, then adjusted with additional RPMI as needed to give 5×10^7 cells/mL. On day 1, female nu/nu mice at 5-6 weeks of age are injected intravenously with BaF3 cells injected injecting 0.1 mL (5×10^6) cells in the tail vein (mice without cell injected are included as control group). Compound stocks in dimethylsulfoxide are stored at room temperature protected from light. Stocks are diluted prior to dosing, diluting 22 μL of compound stock into 858 μL of diluent (or 50 μL into 1950 μL) to provide vehicle of 1.0% Polysorbate 80, 0.5% hydroxypropyl methyl cellulose, with final dimethylsulfoxide at 2.5% in all dosing suspensions and vehicle control. Dosing suspension is prepared prior to use, mixing by inversion and sonication in a water bath to make a uniform suspension. On days 10-18, mice are treated with vehicle only or the desired level of compound in vehicle, ˜0.2 mL per 25 gm mouse, once a day by oral gavage, or in some instances, twice per day. On day 18, mice are administered a final dose and two hours later a plasma sample is taken. At four hours following the final dose, mice are sacrificed, an additional plasma sample is collected and mouse spleens are removed and weighed. The average spleen weight of vehicle control group mice is compared to the average spleen weight of the test compound mice. Percent spleen growth inhibition is calculated as 100×[(spleen weight vehicle control-spleen weight test compound)/spleen weight vehicle control]. In some instances, the compounds were not tested in all of the assays as indicated by NA in the table below.

[1] = Relative solubility by turbidity in aqueous buffers (pH 1.5, 4.5, 6.8, 7.4); type: physicochemical; details: for turbidity threshold (L, M, H) 1.4: pH 1.5 (SGF); for turbidity threshold (L, M, H) 4.5: pH 4.5 (SIF); for turbidity threshold (L, M, H) 6.8: pH 6.8 (SIF); for turbidity threshold (L, M, H) 7.4: pH 7.4 (HEPES)
Method in brief: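 Reported value: concentration at which optical density at 490, 535 and 650 nm passes 0.01, taken as the mean of the three wavelengths. Buffers were 0.5M NaCl pH 1.5, 0.05M NaH2PO4 pH 4.5 or 6.8, and 10 mM HEPES/150 mM NaCl pH 7.4, each receiving serial 1:1 DMSO dilutions of a 25 mM stock.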

Row | SMILES | % spleen growth inhibition, Fms (BCR-FMS BaF3 cells) [%] | turbidity threshold (L, M, H) 1.4 [1] | turbidity threshold (L, M, H) 4.5 [1] | turbidity threshold (L, M, H) 6.8 [1] | turbidity threshold (L, M, H) 7.4 [1]
1 | Cc1ccc(Nc2ccc(C(=O)c3c[nH]c4ncnc(C5CC5)c34)c(F)n2)cn1 [Compound P-4031, (4-Cyclopropyl-7H-pyrrolo[2,3-d]pyrimidin-5-yl)-[2-fluoro-6-(6-methyl-pyridin-3-ylamino)-pyridin-3-yl]-methanone] | 29 | – | – | – | –
2 | CCc1ccc(Nc2ccc(C(=O)c3c[nH]c4ncnc(C5CC5)c34)c(F)n2)cn1 [Compound P-4029, (4-Cyclopropyl-7H-pyrrolo[2,3-d]pyrimidin-5-yl)-[6-(6-ethyl-pyridin-3-ylamino)-2-fluoro-pyridin-3-yl]-methanone] | 66 | – | – | – | –
3 | CCOc1ccc(Nc2ccc(Cc3c[nH]c4ncnc(C5CC5)c34)c(F)n2)cn1 [Compound P-4026, [5-(4-Cyclopropyl-7H-pyrrolo[2,3-d]pyrimidin-5-ylmethyl)-6-fluoro-pyridin-2-yl]-(6-ethoxy-pyridin-3-yl)-amine] | 41 | – | – | – | –
4 | Fc1nc(Nc2ccc(C3CC3)nc2)ccc1Cc1c[nH]c2ncnc(NCC(F)(F)F)c12 [Compound P-4130, 5-[[6-[(6-cyclopropyl-3-pyridyl)amino]-2-fluoro-3-pyridyl]methyl]-N-(2,2,2-trifluoroethyl)-7H-pyrrolo[2,3-d]pyrimidin-4-amine] | 70 | H (high solubility if the threshold concentration is >250 μm) | M (moderate solubility if the threshold concentration is 31.3 μM to 250 μM) | M (moderate solubility if the threshold concentration is 31.3 μM to 250 μM) | M (moderate solubility if the threshold concentration is 31.3 μM to 250 μM)
5 | CCOc1ccc(Nc2ccc(C(=O)c3c[nH]c4ncnc(C5CC5)c34)c(F)n2)cn1 [Compound P-4027, (4-Cyclopropyl-7H-pyrrolo[2,3-d]pyrimidin-5-yl)-[6-(6-ethoxy-pyridin-3-ylamino)-2-fluoro-pyridin-3-yl]-methanone] | −1.4 | – | – | – | –
6 | Cc1cnc2[nH]cc(C(=O)c3ccc(Nc4ccc(C)nc4)nc3F)c2c1 [Compound P-3043, [2-Fluoro-6-(6-methyl-pyridin-3-ylamino)-pyridin-3-yl]-(5-methyl-1H-pyrrolo[2,3-b]pyridin-3-yl)-methanone] | – | M (moderate solubility if the threshold concentration is 31.3 μM to 250 μM) | M (moderate solubility if the threshold concentration is 31.3 μM to 250 μM) | M (moderate solubility if the threshold concentration is 31.3 μM to 250 μM) | M (moderate solubility if the threshold concentration is 31.3 μM to 250 μM)
7 | CCOc1ncnc2[nH]cc(Cc3ccc(Nc4ccc(C)nc4)nc3F)c12 [Compound P-4017, [5-(4-Ethoxy-7H-pyrrolo[2,3-d]pyrimidin-5-ylmethyl)-6-fluoro-pyridin-2-yl]-(6-methyl-pyridin-3-yl)-amine] | – | M (moderate solubility if the threshold concentration is 31.3 μM to 250 μM) | M (moderate solubility if the threshold concentration is 31.3 μM to 250 μM) | M (moderate solubility if the threshold concentration is 31.3 μM to 250 μM) | L (low solubility if the threshold concentration is <31.3 μM)
8 | CCOc1ncnc2[nH]cc(Cc3ccc(Nc4ccc(OC)nc4)nc3F)c12 [Compound P-4018, [5-(4-Ethoxy-7H-pyrrolo[2,3-d]pyrimidin-5-ylmethyl)-6-fluoro-pyridin-2-yl]-(6-methoxy-pyridin-3-yl)-amine] | – | M (moderate solubility if the threshold concentration is 31.3 μM to 250 μM) | L (low solubility if the threshold concentration is <31.3 μM) | L (low solubility if the threshold concentration is <31.3 μM) | L (low solubility if the threshold concentration is <31.3 μM)
9 | CCc1ccc(Nc2ccc(Cc3c[nH]c4ncnc(OCCOC)c34)c(F)n2)cn1 [Compound P-4016, (6-Ethyl-pyridin-3-yl)-{6-fluoro-5-[4-(2-methoxy-ethoxy)-7H-pyrrolo[2,3-d]pyrimidin-5-ylmethyl]-pyridin-2-yl}-amine] | – | M (moderate solubility if the threshold concentration is 31.3 μM to 250 μM) | H (high solubility if the threshold concentration is >250 μm) | M (moderate solubility if the threshold concentration is 31.3 μM to 250 μM) | M (moderate solubility if the threshold concentration is 31.3 μM to 250 μM)
10 | Fc1nc(NC2CCC(F)(F)CC2)ccc1Cc1c[nH]c2ncnc(NC3CC3)c12 [Compound P-4129, N-cyclopropyl-5-[[6-[(4,4-difluorocyclohexyl)amino]-2-fluoro-3-pyridyl]methyl]-7H-pyrrolo[2,3-d]pyrimidin-4-amine] | – | H (high solubility if the threshold concentration is >250 μm) | M (moderate solubility if the threshold concentration is 31.3 μM to 250 μM) | M (moderate solubility if the threshold concentration is 31.3 μM to 250 μM) | M (moderate solubility if the threshold concentration is 31.3 μM to 250 μM)
11 | COc1ncnc2[nH]cc(Cc3ccc(Nc4ccc(Cl)nc4)nc3F)c12 [Compound P-4003, (6-Chloro-pyridin-3-yl)-[6-fluoro-5-(4-methoxy-7H-pyrrolo[2,3-d]pyrimidin-5-ylmethyl)-pyridin-2-yl]-amine] | – | M (moderate solubility if the threshold concentration is 31.3 μM to 250 μM) | M (moderate solubility if the threshold concentration is 31.3 μM to 250 μM) | M (moderate solubility if the threshold concentration is 31.3 μM to 250 μM) | M (moderate solubility if the threshold concentration is 31.3 μM to 250 μM)
12 | CCn1cc(Nc2ccc(Cc3c[nH]c4ncnc(OCCOC)c34)c(F)n2)cn1 [Compound P-4014, (1-Ethyl-1H-pyrazol-4-yl)-{6-fluoro-5-[4-(2-methoxy-ethoxy)-7H-pyrrolo[2,3-d]pyrimidin-5-ylmethyl]-pyridin-2-yl}-amine] | – | M (moderate solubility if the threshold concentration is 31.3 μM to 250 μM) | M (moderate solubility if the threshold concentration is 31.3 μM to 250 μM) | M (moderate solubility if the threshold concentration is 31.3 μM to 250 μM) | M (moderate solubility if the threshold concentration is 31.3 μM to 250 μM)
13 | CCOc1ncnc2[nH]cc(C(=O)c3ccc(Nc4ccc(OC)nc4)nc3F)c12 [Compound P-4025, (4-Ethoxy-7H-pyrrolo[2,3-d]pyrimidin-5-yl)-[2-fluoro-6-(6-methoxy-pyridin-3-ylamino)-pyridin-3-yl]-methanone] | – | M (moderate solubility if the threshold concentration is 31.3 μM to 250 μM) | L (low solubility if the threshold concentration is <31.3 μM) | L (low solubility if the threshold concentration is <31.3 μM) | L (low solubility if the threshold concentration is <31.3 μM)
14 | COc1ccc(Nc2ccc(Cc3c[nH]c4ncnc(C5CC5)c34)c(F)n2)cn1 [Compound P-4023, [5-(4-cyclopropyl-7H-pyrrolo[2,3-d]pyrimidin-5-ylmethyl)-6-fluoro-pyridin-2-yl]-(6-methoxy-pyridin-3-yl)-amine] | – | H (high solubility if the threshold concentration is >250 μm) | M (moderate solubility if the threshold concentration is 31.3 μM to 250 μM) | L (low solubility if the threshold concentration is <31.3 μM) | L (low solubility if the threshold concentration is <31.3 μM)
